# Experimental data reported in US20090042820A1, “Tubulin Binding Anti Cancer Agents And Prodrugs Thereof” (Threshold Pharmaceuticals, Inc., priority 2004, published 2009).
# Where two headings read alike, the source gives them in different places.
# How the values were obtained:
# H460 cells [1] = assay: Alamar Blue antiproliferation assay, H460 cell line; type: cell-based, human; details: Homo sapiens
# Method: (§1) To determine the effect of the compounds of the present invention on cell proliferation, the antiproliferative activity of these compounds was tested in a multi-well Alamar Blue based assay (at 2 h and 3 days). Cell growth in the presence and absence of the test compound as tabulated in Table 1 was compared, as measured by a fluorescence plate reader at excitation 550 nm and emission 590 nm (see Biosource International Inc., Tech Application Notes, Use of Alamar Blue in the measurement of Cell Viability and Toxicity, Determining IC50). H460 cells (ATCC HTB-177 ([…]), 4,000 cells/well/200 μl) and LNCap cells (ATCC CRL-1740, 6,000 cells/well/200 μl) were seeded in a 96 well plate in RPMI medium (Invitrogen Corporation, Carlsbad, Calif.). After 24 hours, these plates were divided into 3 groups—Control group, 2 h treatment group and 3 day treatment group.
# (§2) In the 2 h treatment group, after 2 h the cells were rinsed to remove the test compound and incubated for 3 days, followed by staining with AlamarBlue. The cells in the 3-day treatment group were incubated for 3 days, followed by staining with AlamarBlue. In the Control group, AlamarBlue was added to the plate at (i) day 0 and (ii) day 3 and measured to establish the control reading. In all the groups, the capacity of the cells to proliferate was measured 6 hours after addition of AlamarBlue by a fluorescence plate reader at excitation 550 nm and emission 590 nm.
# MES-SA = assay: Alamar Blue antiproliferation assay, MES-SA; type: cell-based; details: Homo sapiens, 72 h, 3 Day
# MES-SA/DX5 = assay: Alamar Blue antiproliferation assay, MES-SA/DX5; type: cell-based; details: Homo sapiens, 72 h; MES-SA/DX5, 3 Day
# HT29 = assay: Alamar Blue antiproliferation assay, HT29; type: cell-based; details: Homo sapiens, HT-29, 72 h; HT29, 3 Day
# T47D = assay: Alamar Blue antiproliferation assay, T47D; type: cell-based; details: Homo sapiens, 72 h, 3 Day
# H460 cells [2] = assay: Cell cycle analysis; type: cell-based, human; details: 24 h
# Method: H460 cells (2×10^5 cells/ml/well) were seeded in a 24 well plate. The culture media were removed after 24 h, the cells were trypsinized and centrifuged. […] The cells were centrifuged and the supernatant was discarded. The cell cycle staining reagent (Guava Technologies, Hayward, Calif., USA, 200 μl) was added to each well. The cells were shielded from light and incubated at room temperature for 30 min.
# tubulin = assay: Tubulin polymerization inhibition (cell free tubulin fluorescence); type: biochemical; details: compared to untreated tubulin, read-out: IC50 (μM), concentration that reduced tubulin fluorescence by 50%
# Method: A sample of cell free tubulin polymerizes and the sample's fluorescence emission increases. Inhibition of tubulin polymerization by a tubulin binding compounds of the present invention was measured by the dose dependence of cell free tubulin fluorescence.
# [3] = Metabolic stability in mouse liver microsomes; type: in vitro ADME; details: 5 μM, 1 mg/mL protein, NADPH, 37° C.
# Method: An in vitro assessment of metabolic stability of compounds was performed using commercially available mouse liver microsomes (MLM) containing cytochrome P450 enzymes (Cedra Corp, Austin, Tex.). A solutions (5 μM) of a compound and microsomes (1 mg/mL protein) was prepared. P450 enzymatic reactions were initiated by adding an NADPH solution. Enzymatic reactions were carried out in a thermostated shaking water bath kept at 37° C. Fifty μl of the reaction mixture was withdrawn immediately and 30 minutes after the addition of the NADPH solution and the proteins were precipitated with acetonitrile. The clear supernatant was analyzed by reversed phase LC-MS/MS (Applied Biosystems API-3000 with Hypersil-BDS C18 column and gradient elution), with internal standard area ratio quantification for the amount the compound remaining as shown in table 4.
# Plasma stability = type: in vitro ADME; details: mouse plasma, 5 μM, 37° C.
# Method: For an assessment of plasma stability of compounds, commercially available mouse plasma (Bioreclamation, Hicksville, N.Y.) was added to a DMSO solution of a compound, to a concentration of 5 μM. The reaction mixture (50 μl) was withdrawn immediately and after 30 minutes at 37° C., proteins were precipitated with acetonitrile. The clear supernatant was analyzed by reversed phase LC-MS/MS and the amount the compound remaining quantified as shown in table 4.
# [4] = H460 xenograft mouse model; type: in vivo; details: female, mouse, in vivo; daily dose for five days, CB17/SCID mice; read-out: maximum tolerated dose
# Method: (§3) Female CB17/SCID mice (purchased from Taconic, Oxnard, Calif.), 7-8 weeks of age, were allowed to acclimatize for at least three days, and handled under pathogen-free conditions. Human non-small cell lung cancer cell line […] was obtained from the American Type Culture Collection. The cell lines were cultured in RPMI 1640 media supplemented with 10% fetal bovine serum. Cells were maintained in a 37° C. incubator with 5% CO2. The H460 cells were harvested from culture and inoculated at 1×10^6 cells/animal in the […] subcutaneous space. […] Taxol was administered approximately 2-3 hours before that of compound 30.
# (§4) The body weight of each mouse was recorded twice per week (FIG. 1). […] One animal in the treatment group was found dead on day 18, and two were found dead on day 22 in the combination group.
# (§5) FIG. 2 graphically illustrates the mean tumor volume for each treatment group. Growth of each xenograft was monitored by externally measuring tumors in two dimensions using a digital caliper twice per week. Tumor volume (V) was determined by the following equation: V=(L×W^2)/2, where L is the length and W is the width of a xenograft. Tumor volumes were measured twice weekly. On day 11, the Treated/Control (T/C) ratio was 65% and 52% in the treatment and combination groups, respectively. At the final measurement (day 22), the T/C ratio for the treatment and combination groups respectively were 43% and 19%.
# H460 xenograft = H460 xenograft mouse model; type: in vivo; details: for Treated/Control (T/C) ratio, tumor volume: compound 30 5 mg/kg daily for five days from day 8
# Method: as §3, §4, §5
# cancer cell = assay: Cancer cell antiproliferation assay (cell line not stated); type: cell-based; details: summary statement; read-out: GI50 or IC50 in a cancer cell antiproliferation assay
# Method: In one aspect, the present invention provides a compound of formula (I-VII) having a GI50, GI90, IC50, or IC50 of about 0.001 to about 1000 nM, about 0.01 to about 100 nm, about 0.1 to about 50 nM, and about 1 to about 10 nM in a cancer cell antiproliferation assay. In one embodiment, the present invention provides a compound of formula (I) having a GI50 or IC50 of about 0.01 to about 100 nm, about 0.1 to about 50 nm, and about 1 to about 10 nm in a cancer cell antiproliferation assay. In various embodiments, said antiproliferation assays employ cancer cell including but not limited to gastric, colon, breast, and non-small cell lung cancer. In various embodiments, the […] cancer cell used is MESSA or doxorubicin resistant MESSA/DX5 cell; the colon cancer cell is HT29 cell; the breast cancer cell is T47D cell; and the non-small cell lung cancer cell is H460 cell.
# as §1, §2
compound,measurement,setting,value
COc1cc(C(=O)c2n[nH]c3c(C#CCO)c(OC)ccc23)cc(OC)c1OC [Compound 30],GI50,"H460 cells [1]; NCI-H460, 2 h treatment, then 3 days incubation, read-out: GI50 (nM) 2 Hour",630 nM
same,GI50,"H460 cells [1]; NCI-H460, 72 h, 3 day treatment, read-out: GI50 (nM) 3 Days",10 nM
same,GI50,MES-SA,0.3 nM
same,GI50,MES-SA/DX5,1.6 nM
same,GI50,HT29,1.9 nM
same,GI50,T47D,2.5 nM
same,% G2/M,"H460 cells [2]; H460, 0.4 nM",31%
same,% Go/G1,"H460 cells [2]; H460, 0.4 nM",46%
same,% S,"H460 cells [2]; H460, 0.4 nM",14%
same,% G2/M,"H460 cells [2]; H460, 1.2 nM",29%
same,% Go/G1,"H460 cells [2]; H460, 1.2 nM",48%
same,% S,"H460 cells [2]; H460, 1.2 nM",15%
same,% G2/M,"H460 cells [2]; H460, 3.7 nM",31%
same,% Go/G1,"H460 cells [2]; H460, 3.7 nM",46%
same,% S,"H460 cells [2]; H460, 3.7 nM",14%
same,% G2/M,"H460 cells [2]; H460, 11.1 nM",68%
same,% Go/G1,"H460 cells [2]; H460, 11.1 nM",14%
same,% S,"H460 cells [2]; H460, 11.1 nM",9%
same,% G2/M,"H460 cells [2]; H460, 33.3 nM",80%
same,% Go/G1,"H460 cells [2]; H460, 33.3 nM",7%
same,% S,"H460 cells [2]; H460, 33.3 nM",7%
same,IC50,tubulin,3.9 µM
same,"Metabolic stability (MLM, % remaining at 30 min)",[3],101 ± 16%
same,Plasma stability (% remaining at 30 min),Plasma stability,104%
same,MTD at 5 days,[4],5 to 20 mg/kg
same,toxicity at doses greater than 5 mg/kg,"H460 xenograft; daily doses 20 and 50 mg/kg for five days, treatment and combination groups",toxic and caused lethality
same,"Treated/Control (T/C) ratio, tumor volume",H460 xenograft; day 11,65%
same,animals found dead,"H460 xenograft; day 18, compound 30 5 mg/kg daily, ten per group",One
same,"Treated/Control (T/C) ratio, tumor volume",H460 xenograft; day 22 (final measurement),43%
same,mean weight loss,"H460 xenograft; day 22 from start of treatment on day 8, compound 30 5 mg/kg daily for five days",8%
same,tumor volume as % of a control tumor volume,"H460 xenograft; human cancer cell xenograft tumor bearing mice, summary statement",5-70%
same,IC50,cancer cell,1 to 50 nM
